Measurements as given in US8017611B2, “Pyridine and pyrazine derivatives -083” (AstraZeneca AB, priority 2007, dated 2011).

Each compound was assayed against T1, recombinant Axl tyrosine kinase (Homo sapiens, UniProt P30530) (assay: In vitro Axl kinase assay (AlphaScreen), Test (a)). Conditions: test compound at 1 μM; first value quoted.
T1 construct: encompassing amino acids 473 to 894 of Axl; GST (N); made in house; host or cells: SF126 insect cells
T1 sequence (P30530 473-894): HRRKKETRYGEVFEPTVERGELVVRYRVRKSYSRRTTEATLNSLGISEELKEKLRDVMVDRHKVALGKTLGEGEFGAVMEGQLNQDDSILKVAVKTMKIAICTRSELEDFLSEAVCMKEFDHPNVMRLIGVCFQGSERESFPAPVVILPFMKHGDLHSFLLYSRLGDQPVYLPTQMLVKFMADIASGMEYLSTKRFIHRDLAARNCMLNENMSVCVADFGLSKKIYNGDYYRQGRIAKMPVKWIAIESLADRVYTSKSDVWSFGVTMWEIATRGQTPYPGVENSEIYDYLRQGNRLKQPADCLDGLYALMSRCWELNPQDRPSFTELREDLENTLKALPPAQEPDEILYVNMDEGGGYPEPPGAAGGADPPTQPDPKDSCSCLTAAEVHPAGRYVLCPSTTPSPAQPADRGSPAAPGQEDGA
Assay type: biochemical
Experimental: Test compounds were prepared as 10 mM stock solutions in dimethylsulphoxide (DMSO) and diluted in DMSO as required. Aliquots (120 nl) of compound dilutions were filled into the wells of a Greiner 384-well low volume (LV) white polystyrene plate (Greiner Bio-one) using acoustic dispensing (Labcyte Echo 550). A 10 μl mixture of recombinant purified Axl enzyme, biotinylated peptide substrate (Biotin poly-GAT; CisBio, Catalogue No. 61GATBLB), 0.2 μM adenosine triphosphate (ATP) and a buffer solution [comprising 20 mM Tris-HCl pH 7.5 buffer, 0.01% v/v Tween, 5 mM dithiothreitol (DTT) and 10 mM manganese chloride] was incubated with the compounds at room temperature for 20 minutes.
Control wells that produced a minimum signal corresponding to 100% inhibited enzyme were created by adding 10 μM of Staurosporine.
The percentage kinase inhibition value is the percentage of Axl tyrosine kinase activity inhibited by the test compound at a concentration of 1 μM.

First: COc1cccc2nc(-c3cc(-c4cn(C5CCNCC5)nc4CO)cnc3N)oc12 [Example 62.13]
Second: COc1cccc2oc(-c3cc(-c4cnn(C5CCNCC5)c4)cnc3N)nc12 [Example 38A.1]
The “% Axl tyrosine kinase inhibition at 1 μM concentration” value (shortened to “% Axl tyrosine kinase inhibition”) of the first is higher: 100.0% for the first, 97.8% for the second.

Going from CN(C)CCn1cc(-c2cnc(N)c(-c3nc4ccccc4o3)c2)cn1 [Example 27.5] to Nc1ncc(-c2cnn(CCCN3CCC(O)C3)c2)cc1-c1nc2ccccc2o1 (stereo not drawn) [Example 31.1], the “% Axl tyrosine kinase inhibition” value rises from 98.4% to 100.0%.

Compared with CC(C)c1ccc2nc(-c3cc(-c4cnn(C5CCN(C)CC5)c4)cnc3N)oc2c1 [Example 7.4], CN1CCC(n2cc(-c3cnc(N)c(-c4nc5ccc(OC(F)(F)F)cc5o4)c3)cn2)CC1 [Example 7.10] is lower in “% Axl tyrosine kinase inhibition” value: 99.6% for the first, 95.7% for the second.

Compared with Nc1ncc(-c2cccc(N3CCCCC3)c2)cc1-c1nc2ncccc2o1 [Example 10A.17], Nc1ncc(-c2cccc(N3CCCCC3)c2)cc1-c1nc2cnccc2o1 [Example 8A.21] is higher in “% Axl tyrosine kinase inhibition” value: 40.3% for the first, 85.8% for the second.

Going from CN1CCC(Oc2ccc(-c3cnc(N)c(-c4nc5ncccc5o4)c3)cc2)C1 (stereo not drawn) [Example 43B.4] to CN1CCC(CNC(=O)c2ccc(-c3cnc(N)c(-c4nc5cccnc5o4)c3)cc2)C1 (stereo not drawn) [Example 45A.27], the “% Axl tyrosine kinase inhibition” value falls from 99.3% to 97.9%.

First: CNC1CCC(NC(=O)c2ccc(-c3cnc(N)c(-c4nc5cccnc5o4)c3)cc2)CC1 (stereo not drawn) [Example 45A.99]
Second: CN1CCC(CNC(=O)c2ccc(-c3cnc(N)c(-c4nc5cccnc5o4)c3)cc2)CC1 [Example 45A.25]
The “% Axl tyrosine kinase inhibition” value of the first is lower: 95.9% for the first, 97.8% for the second.

Compared with CC(O)c1nn(C2CCN(C)CC2)cc1-c1cnc(N)c(-c2nc3ccccc3o2)c1 (stereo not drawn) [Example 41.29], COc1cccc2oc(-c3cc(-c4cnn(C5CCN(C)CC5)c4)cnc3N)nc12 [Example 41.24] is lower in “% Axl tyrosine kinase inhibition” value: 99.9% for the first, 92.1% for the second.

Going from Nc1ncc(-c2cccc(C(=O)NC3CC3)c2)cc1-c1nc2cnccc2o1 [Example 8A.7] to CN(C)c1cccc(-c2cnc(N)c(-c3nc4ccccc4o3)c2)c1 [Example 2.50], the “% Axl tyrosine kinase inhibition” value rises from 87.8% to 90.0%.

Going from COc1cc(-c2cnc(N)c(-c3nc4ncccc4o3)c2)ccc1N1CCNCC1 [Example 25.8] to CC(C)N1CCC(n2cc(-c3cnc(N)c(-c4nc5ncccc5o4)c3)cn2)CC1 [Example 53.4], the “% Axl tyrosine kinase inhibition” value falls from 99.8% to 99.2%.

Going from Nc1ncc(-c2ccc(C(=O)NCCN3CCCCCC3)cc2)cc1-c1nc2cccnc2o1 [Example 45A.32] to Nc1ncc(-c2ccc(C(=O)NCCCN3CCNCC3)cc2)cc1-c1nc2cccnc2o1 [Example 45A.101], the “% Axl tyrosine kinase inhibition” value falls from 99.6% to 99.1%.

First: CN1C2CCC1CC(n1cc(-c3cnc(N)c(-c4nc5ccccc5o4)c3)cn1)C2 (stereo not drawn) [Example 27.6]
Second: CCN1CCC(CNC(=O)c2ccc(-c3cnc(N)c(-c4nc5cccnc5o4)c3)cc2)CC1 [Example 45A.47]
The “% Axl tyrosine kinase inhibition” value of the first is higher: 99.9% for the first, 96.1% for the second.

With NCc1ccc(-c2cnc(N)c(-c3nc4cccnc4o3)c2)cc1 [Example 9A.13] the “% Axl tyrosine kinase inhibition” value was 98.3%.

Same assay, conditions: test compound at 1 μM; first value quoted; read-out: % Axl tyrosine kinase inhibition at 1 μM concentration

In the case of CC(C)N1CCC(n2cc(-c3cnc(N)c(-c4nc5ccccc5o4)c3)cn2)CC1 [Example 5, 3-(1,3-Benzoxazol-2-yl)-5-[1-(1-isopropyl-4-piperidyl)pyrazol-4-yl]pyridin-2-amine], the inhibition at 1 µM was 100%.
